Drawing on US20070249670A1, “Glycogen Phosphorylase Inhibitor Compounds and Pharmaceutical Compositions Thereof” (SMITHKLINE BEECHAM CORPORATION, priority 2004, published 2007), this text covers IC50 for 20 molecules.

This assay deals with T1, human liver glycogen phosphorylase a (HLGPa) (Homo sapiens, UniProt P06737).
T1 construct: creating a full-length cDNA fused at the 5′ end to codons for methionine-glycine-alanine-histidine; 6xHis tag (leader Met-Gly-Ala-His6-Gly-Gly) (N); made in house; host or cells: E. coli (bacterial expression plasmid pTXK1007LTev)
T1 sequence (P06737 2-847 limits assumed): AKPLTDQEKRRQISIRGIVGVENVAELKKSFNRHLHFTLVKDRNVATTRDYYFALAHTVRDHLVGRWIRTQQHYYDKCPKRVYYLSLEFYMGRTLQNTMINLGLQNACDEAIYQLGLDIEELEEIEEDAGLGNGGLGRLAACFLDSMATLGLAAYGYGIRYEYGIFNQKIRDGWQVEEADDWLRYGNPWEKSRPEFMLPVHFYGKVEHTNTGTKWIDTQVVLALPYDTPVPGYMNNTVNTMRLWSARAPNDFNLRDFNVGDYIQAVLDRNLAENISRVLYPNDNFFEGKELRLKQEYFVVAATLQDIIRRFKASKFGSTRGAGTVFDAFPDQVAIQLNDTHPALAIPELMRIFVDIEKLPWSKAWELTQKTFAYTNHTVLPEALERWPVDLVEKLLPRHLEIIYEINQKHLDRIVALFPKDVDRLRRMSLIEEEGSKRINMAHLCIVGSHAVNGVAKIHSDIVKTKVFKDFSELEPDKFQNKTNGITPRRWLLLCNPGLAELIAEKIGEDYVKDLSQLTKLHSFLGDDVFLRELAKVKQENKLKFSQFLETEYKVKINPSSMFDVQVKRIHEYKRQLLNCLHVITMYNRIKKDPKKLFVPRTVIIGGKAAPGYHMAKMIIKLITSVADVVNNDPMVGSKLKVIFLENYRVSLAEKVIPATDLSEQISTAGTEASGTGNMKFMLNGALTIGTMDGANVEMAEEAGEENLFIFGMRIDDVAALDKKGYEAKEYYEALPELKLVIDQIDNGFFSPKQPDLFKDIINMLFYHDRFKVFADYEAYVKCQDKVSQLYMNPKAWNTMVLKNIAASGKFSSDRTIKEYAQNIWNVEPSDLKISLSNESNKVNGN
The experiment in a line: Human liver glycogen phosphorylase a enzymatic activity assay (coupled, fluorescent resorufin readout, with and without 10 mM glucose). It is filed as biochemical. The settings on record: human liver glycogen phosphorylase a enzymatic activity assay.

Each structure is given as a SMILES string.

What is called IC50 is the concentration at which inhibition is half-maximal. High values mean weaker potency in that assay, low ones greater potency in that assay. Consider `Cc1cc(C)c(NC(=O)Nc2cc3ccccc3cc2C(=O)N[C@@H](Cc2ccccc2)C(=O)O)c(C)c1` [Example 514, N-{[3-({[(2,4,6-trimethylphenyl)amino]carbonyl}amino)-2-naphthalenyl]carbonyl}-L-phenylalanine], for which the IC50 was found to be 52 nM.

`Cc1cc(C)c(NC(=O)Nc2cc(F)ccc2C(=O)N[C@@H](CCNC(=O)OC(C)(C)C)C(=O)O)c(C)c1` [Example 515, (2S)-4-({[(1,1-dimethylethyl)oxy]carbonyl}amino)-2-({[4-fluoro-2-({[(2,4,6-trimethylphenyl)amino]carbonyl}amino)phenyl]carbonyl}amino)butanoic acid] showed an IC50 of 1900 nM.

Molecule `Cc1cc(C)c(NC(=O)Nc2cc3ccccc3cc2C(=O)N[C@@H](CCNC(=O)OC(C)(C)C)C(=O)O)c(C)c1` [Example 516, (2S)-4-({[(1,1-dimethylethyl)oxy]carbonyl}amino)-2-({[3-({[(2,4,6-trimethylphenyl)amino]carbonyl}amino)-2-naphthalenyl]carbonyl}amino)butanoic acid] gave an IC50 of 89 nM.

Turning to `Cc1cc(-c2ccccc2)cc(C)c1NC(=O)Nc1cc2ccccc2cc1C(=O)NC1(C(=O)O)CCCCCC1` [Example 518, 1-({[3-({[(3,5-dimethyl-4-biphenylyl)amino]carbonyl}amino)-2-naphthalenyl]carbonyl}amino)cycloheptanecarboxylic acid], the IC50 came to 340 nM.

`Cc1cc(C)c(NC(=O)Nc2cc(-c3ccc(F)c(F)c3)ccc2C(=O)N[C@H](C(=O)O)[C@@H](C)OC2CCC2)c(C)c1` [Example 519, O-cyclobutyl-N-{[3′,4′-difluoro-3-({[(2,4,6-trimethylphenyl)amino]carbonyl}amino)-4-biphenylyl]carbonyl}-L-threonine] came in with an IC50 of 7 nM. This IC50 lies about 49-fold lower than the previous one.

`Cc1cc(C)c(NC(=O)Nc2cc(F)ccc2C(=O)N[C@H](C(=O)O)[C@@H](C)OCc2ccccc2)c(C)c1` [Example 521, N-{[4-fluoro-2-({[(2,4,6-trimethylphenyl)amino]carbonyl}amino)phenyl]carbonyl}-O-(phenylmethyl)-L-threonine] returned an IC50 of 134 nM.

On to `Cc1cc(C)c(NC(=O)Nc2cc(-c3ccc(F)c(F)c3)ccc2C(=O)N[C@@H](C(=O)O)[C@H](C)OC(C)(C)C)c(C)c1` [Example 522, N-{[3′,4′-difluoro-3-({[(2,4,6-trimethylphenyl)amino]carbonyl}amino)-4-biphenylyl]carbonyl}-O-(1,1-dimethylethyl)-D-threonine], for which the IC50 is 675 nM.

Turning to `COc1ccccc1-c1ccc(C(=O)N[C@H](C(=O)O)C2CCCCC2)c(NC(=O)Nc2c(C)cc(C)cc2C)c1` [Example 523, (2S)-cyclohexyl({[2′-(methyloxy)-3-({[(2,4,6-trimethylphenyl)amino]carbonyl}amino)-4-biphenylyl]carbonyl}amino)ethanoic acid], half-maximal inhibition (IC50) was put at 8 nM.

`COc1ccccc1-c1ccc(C(=O)N[C@H](C(=O)O)[C@@H](C)OC(C)(C)C)c(NC(=O)Nc2c(C)cc(C)cc2C)c1` [Example 524, O-(1,1-Dimethylethyl)-N-{[2′-(methyloxy)-3-({[(2,4,6-trimethylphenyl)amino]carbonyl}amino)-4-biphenylyl]carbonyl}-L-threonine] returned an IC50 of 11 nM.

As for `Cc1cc(C)c(NC(=O)Nc2cc(-c3cc(F)cc(F)c3)ccc2C(=O)N[C@H](C(=O)O)[C@@H](C)OC(C)(C)C)c(C)c1` [Example 525, N-{[3′,5′-Difluoro-3-({[(2,4,6-trimethylphenyl)amino]carbonyl}amino)-4-biphenylyl]carbonyl}-O-(1,1-dimethylethyl)-L-threonine], the IC50 came out at 7 nM.

As to `Cc1cc(C)c(NC(=O)Nc2cc(-c3cc(F)cc(F)c3)ccc2C(=O)N[C@H](C(=O)O)C2CCCCC2)c(C)c1` [Example 526, (2S)-Cyclohexyl({[3′,5′-difluoro-3-({[(2,4,6-trimethylphenyl)amino]carbonyl}amino)-4-biphenylyl]carbonyl}amino)ethanoic acid], the IC50 was 5 nM.

As for `Cc1cc(C)c(NC(=O)Nc2cc(-c3ccc(F)cc3)ccc2C(=O)N[C@H](C(=O)O)[C@@H](C)OC(C)(C)C)c(C)c1` [Example 527, O-(1,1-Dimethylethyl)-N-{[4′-fluoro-3-({[(2,4,6-trimethylphenyl)amino]carbonyl}amino)-4-biphenylyl]carbonyl}-L-threonine], the IC50 was 3 nM.

`Cc1cc(C)c(NC(=O)Nc2cc(-c3ccccc3)ccc2C(=O)N[C@H](C(=O)O)[C@@H](C)OC(C)(C)C)c(C)c1` [Example 528, O-(1,1-Dimethylethyl)-N-{[3-({[(2,4,6-trimethylphenyl)amino]carbonyl}amino)-4-biphenylyl]carbonyl}-L-threonine] registered an IC50 of 3 nM. In other words, the single-digit nanomolar range.

On to `Cc1cc(C)c(NC(=O)Nc2cc(-c3ccccc3)ccc2C(=O)NC2(C(=O)O)CCCCCCC2)c(C)c1` [Example 529, 1-({[3-({[(2,4,6-Trimethylphenyl)amino]carbonyl}amino)-4-biphenylyl]carbonyl}amino)cyclooctanecarboxylic acid], for which the IC50 turned out to be 2 nM.

`Cc1cc(C2CC2)cc(C)c1NC(=O)Nc1cc(-c2cccc(F)c2)ccc1C(=O)N[C@H](C(=O)O)[C@@H](C)OC(C)(C)C` [Example 530, N-{[3-({[(4-Cyclopropyl-2,6-dimethylphenyl)amino]carbonyl}amino)-3′-fluoro-4-biphenylyl]carbonyl}-O-(1,1-dimethylethyl)-L-threonine] came in with an IC50 of 21 nM.

`Cc1cc(C2CC2)cc(C)c1NC(=O)Nc1c(C(=O)N[C@H](C(=O)O)C2CCCCC2)ccc2ccccc12` [Example 531] showed an IC50 of 19 nM.

`COc1ccc(-c2ccc(C(=O)N[C@H](C(=O)O)[C@@H](C)OC(C)(C)C)c(NC(=O)Nc3c(C)cc(C4CC4)cc3C)c2)cc1` [Example 532, N-{[3-({[(4-cyclopropyl-2,6-dimethylphenyl)amino]carbonyl}amino)-4′-(methyloxy)-4-biphenylyl]carbonyl}-O-(1,1-dimethylethyl)-L-threonine]: the midpoint of inhibition, the IC50, lay at 11 nM.

In turn, `Cc1cc(C)c(NC(=O)Nc2cc(-c3ccc(Cl)cc3)sc2C(=O)NC2(C(=O)O)CCCCC2)c(C)c1` [Example 533, 1-({[5-(4-Chlorophenyl)-3-({[(2,4,6-trimethylphenyl)amino]carbonyl}amino)-2-thienyl]carbonyl}amino)cyclohexanecarboxylic acid] yielded an IC50 of 3 nM.

As to `Cc1cc(C)c(NC(=O)Nc2cc(-c3ccc(F)c(F)c3)sc2C(=O)NC2(C(=O)O)CCCCC2)c(C)c1` [Example 534, 1-({[5-(3,4-difluorophenyl)-3-({[(2,4,6-trimethylphenyl)amino]carbonyl}amino)-2-thienyl]carbonyl}amino)cyclohexanecarboxylic acid], the IC50 worked out at 104 nM.

For the molecule `Cc1cc(C)c(NC(=O)Nc2cc(-c3cc(F)c(F)c(F)c3)sc2C(=O)NC2(C(=O)O)CCCCC2)c(C)c1` [Example 535, 1-({[5-(3,4,5-trifluorophenyl)-3-({[(2,4,6-trimethylphenyl)amino]carbonyl}amino)-2-thienyl]carbonyl}amino) cyclohexanecarboxylic acid], half-maximal inhibition (IC50) was put at 206 nM.
